Patent US11219625B2, “Inhibitors of N-linked glycosylation and methods using same” (YALE UNIVERSITY, priority 2015, dated 2022)

How the values were obtained:
[1] = system: H3255 cells; assay: MTT proliferation assay, H3255; assay type: cell-based; settings: H3255, 10 μM NGI-1, 5 d, p<0.05
Description: FIGS. 7A-7D illustrate EGFR kinase domain mutant cell lines growth inhibition and cell cycle arrest response to NGI-1. FIG. 7A illustrates MTT assays to determine the effects of NGI-1 on growth of H3255 cells. FIG. 7B illustrates MIT assays to determine the effects of NGI-1 on growth of HCC827 cells. EGFR kinase domain mutant cell lines H3255 and HCC827 cells were untreated or treated with 10 μM NGI-1 for 5 d. […] FIG. 7C illustrates cell cycle distribution of H3255 after 24 h NGI-1 treatment for 24 h determined by flow cytometry. FIG. 7D illustrates cell cycle distribution of HCC827 after 24 h NGI-1 treatment for 24 h determined by flow cytometry.
Growth rates were determined by CellTiter 96 NonRadioactive Cell Proliferation Assay (Promega; Madison, Wis. USA) according to the manufacturer's directions. Briefly, NSCLC cells (2×10^3) untreated or treated with […] NGI-1 or 1 μM Tn, were seeded in triplicates in 96-wells plates and grown in culture medium containing […]. Cell numbers were estimated after 0, 3, and 5 days by adding MTT [(3-(4,5-Dimethylthiazol-2-yl)-2,5-diphenyltetrazolium bromide] reagent to the wells 4 hours before taking the spectrophotometric reading (absorbance at 570 nm).

[2] = system: PC9 cells; assay: Apoptosis by flow cytometry (Annexin-V, 7-AAD), PC9; assay type: cell-based; settings: PC9, NGI-1 10 μM for 2 or 5 days, or Tn 1 μM
Description: Analysis of apoptosis susceptibility in A549 and PC9 NSCLC cell lines followed treatment with NGI-1 10 μM or Tn 1 μM for 2 days was done by flow cytometry after staining the cells with Annexin-V (early apoptosis) and 7-AAD (viability dye). […] FIG. 9C: Western blot of BIP protein for A549 and PC9 cells after treatment with 10 μM NGI-1 for 6, 12 or 24 h. The expression of GAPDH was used as a loading control.

[3] = target: T1, OST (Canis lupus familiaris, UniProt F1PJP5); assay: Cell free OST inhibition, canine pancreas microsomes with in vitro translation of pSAP mRNA; assay type: biochemical; settings: FIG. 2D
T1 construct: rabbit reticulocyte lysate translation system supplemented with canine pancreas rough microsomes (cRM); from tissue; host or cells: canine pancreas rough microsomes
T1 sequence (F1PJP5 1-705): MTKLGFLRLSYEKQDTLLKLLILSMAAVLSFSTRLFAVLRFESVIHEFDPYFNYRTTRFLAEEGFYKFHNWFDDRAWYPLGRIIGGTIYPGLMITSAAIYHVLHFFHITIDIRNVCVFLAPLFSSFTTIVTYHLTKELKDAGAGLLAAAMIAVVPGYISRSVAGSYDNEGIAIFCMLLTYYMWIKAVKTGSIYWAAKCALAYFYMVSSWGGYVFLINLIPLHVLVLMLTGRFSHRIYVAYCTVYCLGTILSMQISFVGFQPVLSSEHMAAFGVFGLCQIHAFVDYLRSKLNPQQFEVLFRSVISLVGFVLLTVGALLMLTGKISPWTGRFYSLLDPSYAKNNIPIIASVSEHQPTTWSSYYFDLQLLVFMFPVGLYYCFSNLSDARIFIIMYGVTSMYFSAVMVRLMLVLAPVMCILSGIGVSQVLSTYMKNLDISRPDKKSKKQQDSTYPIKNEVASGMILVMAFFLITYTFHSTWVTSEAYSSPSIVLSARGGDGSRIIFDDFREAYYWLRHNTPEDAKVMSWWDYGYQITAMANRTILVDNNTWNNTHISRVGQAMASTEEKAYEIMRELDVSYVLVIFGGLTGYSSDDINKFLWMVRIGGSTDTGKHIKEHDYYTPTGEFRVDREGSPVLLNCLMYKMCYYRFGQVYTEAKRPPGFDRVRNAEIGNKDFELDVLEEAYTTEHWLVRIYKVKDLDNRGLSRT
Description: FIGS. 2A-2I illustrate the finding that NGI-1 blocks OST function. FIG. 2A illustrates the western blots of glycosylated luciferase (Luc) after treatment with 1 μM tunicmaycin (Tn) and 10 μM NGI-1 in CHO-Lec15 and CHO-Lec35 cells with stable expression of ER-LucT. FIG. 2B is a […] illustrating FACE analysis of lipid linked oligosaccharides (LLOs). FIG. 2C is a series of western blots illustrating the effects of NGI-1 (5 μM) on free oligosaccharides (left panel) and N-linked glycans cleaved from peptides with Peptide-N-Glycosidase F (right panel). Carbohydrate size is indicated with glucose markers (G4-G7). FIG. 2D is a western blot illustrating cell free inhibition of the OST using a rabbit reticulocyte lysate translation system supplemented with canine pancreas rough microsomes (cRM). […] FIGS. 2G-2H: Dose response and quantitation of NGI-1 effect on pSAP (squares) and SHBG glycosylation (circles). […]
The OST is an ER resident multi-subunit complex that cleaves LLOs and transfers the oligosaccharide to a protein encoded N-linked glycosylation consensus sequence (NXT/S). […] Both enzymatic products of the OST, free glycans and protein glycans, were therefore determined with and without NGI-1 treatment using optimized conditions in streptolysin-O permeabilized CHO cells (FIG. 2C). […]

Cc1cnc(NC(=O)c2cc(S(=O)(=O)N(C)C)ccc2N2CCCC2)s1 [NGI-1, 5-(N,N-Dimethylsulfamoyl)-N-(5-methylthiazol-2-yl)-2-(pyrrolidin-1-yl)benzamide]
reduction of proliferation, MTT [1]: > 45%
induction of apoptosis [2]: did not induce apoptosis
inhibition of pSAP N-linked glycosylation, cell free [3]: dose dependent inhibition of pSAP N-linked glycosylation
